From patent US20240368139A1, “NOVEL MODULATORS OF EHMT1 AND EHMT2 AND THERAPEUTIC USE THEREOF” (Tango Therapeutics, Inc., priority 2021, published 2024)

Experiments:
H3K9me2 in HCT116 cells = experiment: HCT116 H3K9me2 in-cell western assay; assay type: cell-based; conditions: Homo sapiens, HCT-116, 72 h, HCT116 cells, 72 hours incubation; read-out: H3K9me2 ICW IC50
Outline: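 H3K9me2 signal (800 nm) was normalized to DRAQ5 DNA stain (700 nm) in an in-cell western. Cells were fixed with paraformaldehyde and probed overnight at 4° C with primary antibody.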

human EHMT2 913-1193 = target: T1, human EHMT2 913-1193 (Homo sapiens, UniProt Q96KQ7); experiment: EHMT2 enzyme assay on histone peptide substrate (3H-SAM SPA); conditions: EHMT2 IC50, recombinant human EHMT2 913-1193, histone peptide substrate
T1 sequence (Q96KQ7 913-1193): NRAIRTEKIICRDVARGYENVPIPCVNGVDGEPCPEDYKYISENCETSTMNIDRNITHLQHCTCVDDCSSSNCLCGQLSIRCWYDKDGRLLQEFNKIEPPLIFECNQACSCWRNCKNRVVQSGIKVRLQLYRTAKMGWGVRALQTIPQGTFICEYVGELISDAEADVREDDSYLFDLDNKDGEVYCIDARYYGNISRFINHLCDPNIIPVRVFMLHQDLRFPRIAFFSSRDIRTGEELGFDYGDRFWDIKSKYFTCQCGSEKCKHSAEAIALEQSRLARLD

human EHMT1 982-1266 = target: T2, human EHMT1 982-1266 (Homo sapiens, UniProt Q9H9B1); experiment: EHMT1 enzyme assay on histone peptide substrate (3H-SAM SPA); conditions: EHMT1 IC50, recombinant human EHMT1 982-1266, histone peptide substrate
T2 sequence (Q9H9B1 982-1266): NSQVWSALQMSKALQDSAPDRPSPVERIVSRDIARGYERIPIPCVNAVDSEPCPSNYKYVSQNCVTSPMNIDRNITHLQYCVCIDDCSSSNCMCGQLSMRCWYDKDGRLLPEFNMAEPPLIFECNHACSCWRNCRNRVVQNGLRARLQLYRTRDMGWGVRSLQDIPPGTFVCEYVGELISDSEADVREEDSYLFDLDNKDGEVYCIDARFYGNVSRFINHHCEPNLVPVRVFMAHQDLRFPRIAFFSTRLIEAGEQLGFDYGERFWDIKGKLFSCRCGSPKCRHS

Compound | IC50 (H3K9me2 in HCT116 cells) [nM] | IC50 (human EHMT2 913-1193) [nM] | IC50 (human EHMT1 982-1266) [nM]
CNc1cc(Nc2cc3c(c(C4=CCN(C)CCC4)c2F)OCO3)nc(C)c1F [Compound 208] | 100 to 500 | 100 to 500 | 100 to 500
CCc1c(C)nc(Nc2cc3c(c(C4=CCN(C)CCC4)c2F)OCC3)nc1NC [Compound 210] | < 100 | 100 to 500 | < 100
CCc1c(C)nc(Nc2cc3c(c(C4=CCNCCC4)c2F)OCC3)nc1NC [Compound 212] | < 100 | < 100 | < 100
[2H]Cc1nc(Nc2cc3c(c(C4=CCN(C)CCC4)c2F)OCC3)nc(NC([2H])([2H])[2H])c1F [Compound 219] | < 100 | 100 to 500 | 100 to 500
[2H]Cc1nc(Nc2cc3c(c(C4=CCN(C)CCC4)c2)OCC3)nc(NC([2H])([2H])[2H])c1F [Compound 220] | 100 to 500 | 500 to 2000 | 100 to 500
[2H]Cc1nc(Nc2cc3c(c(C4=CCN(C)CCC4)c2F)OCC3)nc(NC)c1F [Compound 221] | < 100 | 500 to 2000 | 100 to 500
[2H]Cc1nc(Nc2cc3c(c(C4=CCN(C)CCC4)c2F)OCC3)nc(NCC([2H])([2H])[2H])c1F [Compound 222] | 100 to 500 | 500 to 2000 | 100 to 500
[2H]Cc1nc(Nc2cc3c(c(C4=CCNCCC4)c2F)OCC3)nc(NCC([2H])([2H])[2H])c1F [Compound 226] | 100 to 500 | 100 to 500 | < 100
[2H]C([2H])([2H])N1CC=C(c2c(F)c(Nc3nc(C)cc(NC)n3)cc3c2OCC3)CCC1 [Compound 227] | < 100 | < 100 | < 100
[2H]Cc1cc(NC([2H])([2H])[2H])nc(Nc2cc3c(c(C4=CCN(C)CCC4)c2)OCCO3)n1 [Compound 230] | 100 to 500 | 100 to 500 | < 100
[2H]C([2H])([2H])CNc1cc(C)nc(Nc2cc3c(c(C4=CCNCCC4)c2F)OCC3)n1 [Compound 231] | < 100 | < 100 | < 100
CNc1cc(Nc2cc3c(c(C4=CCN(C)CCC4)c2F)OCCC3)nc(C)c1F [Compound 236] | 100 to 500 | 100 to 500 | < 100
[2H]C([2H])([2H])Nc1cc(C)nc(Nc2cc3c(c(C4=CCN(C)CCC4)c2F)OCC3)n1 [Compound 238] | < 100 | < 100 | < 100
[2H]Cc1nc(Nc2cc3c(c(C4=CCNCCC4)c2)OCO3)nc(NC([2H])([2H])[2H])c1F [Compound 240] | 100 to 500 | 100 to 500 | 100 to 500
CNc1nc(Nc2cc3c(c(C4=CCNCCC4)c2F)OCC3)nc(C)c1F [Compound 242] | < 100 | < 100 | < 100
CNc1cc(Nc2cc3c(c(C4=CCNCCC4)c2F)OCCC3)nc(C)c1F [Compound 243] | < 100 | < 100 | < 100
[2H]C([2H])([2H])CNc1cc(C)nc(Nc2cc3c(c(C4=CCN(C)CCC4)c2)OCO3)n1 [Compound 244] | 100 to 500 | 100 to 500 | < 100
[2H]Cc1cc(NC)nc(Nc2cc3c(c(C4=CCNCCC4)c2)OCCC3)n1 [Compound 248] | < 100 | < 100 | < 100
[2H]Cc1cc(NC([2H])([2H])[2H])nc(Nc2cc3c(c(C4=CCNCCC4)c2)OCCC3)n1 [Compound 250] | < 100 | < 100 | < 100

More lines, now with the values ahead:

IC50 (H3K9me2 in HCT116 cells) [nM] | IC50 (human EHMT2 913-1193) [nM] | IC50 (human EHMT1 982-1266) [nM] | Compound
< 100 | < 100 | < 100 | CNc1cc(C)nc(Nc2cc3c(c(C4=CCN(C)C(C)CC4)c2F)OCC3)n1 (stereo not drawn) [Compound 204]
100 to 500 | 500 to 2000 | 100 to 500 | CNc1nc(Nc2cc3c(c(C4=CCN(C)CCC4)c2F)OCO3)nc(C)c1F [Compound 205]
< 100 | 100 to 500 | < 100 | CNc1cc(C)nc(Nc2cc3c(c(C4=CC(C)NCCC4)c2F)OCC3)n1 (stereo not drawn) [Compound 206]
< 100 | < 100 | < 100 | CNc1cc(C)nc(Nc2cc3c(c(C4=CCNCCC4)c2F)OCO3)n1 [Compound 207]
< 100 | 100 to 500 | 100 to 500 | CNc1nc(Nc2cc3c(c(C4=CCNCCC4)c2F)OCO3)nc(C)c1F [Compound 209]
< 100 | < 100 | < 100 | CNc1cc(Nc2cc3c(c(C4=CCNCCC4)c2F)OCO3)nc(C)c1F [Compound 211]
< 100 | < 100 | < 100 | CNc1nc(Nc2cc3c(c(C4=CCN(C)CCC4)c2F)OCC3)nc(C)c1C [Compound 214]
100 to 500 | 500 to 2000 | 100 to 500 | CNc1nc(Nc2cc3c(c(C4=CCN(C)CCC4)c2F)OCC3)nc(C)c1Cl [Compound 215]
< 100 | < 100 | < 100 | [2H]C([2H])([2H])CNc1cc(C)nc(Nc2cc3c(c(C4=CCN(C)CCC4)c2F)OCC3)n1 [Compound 217]
100 to 500 | 500 to 2000 | 100 to 500 | [2H]Cc1nc(Nc2cc3c(c(C4=CCN(C)CCC4)c2)OCC3)nc(NC)c1F [Compound 218]
< 100 | < 100 | < 100 | CNc1nc(Nc2cc3c(c(C4=CCNCCC4)c2F)OCC3)nc(C)c1C [Compound 223, N2-[6-fluoro-7-(2,3,4,7-tetrahydro-1H-azepin-5-yl)-2,3-dihydrobenzofuran-5-yl]-N4,5,6-trimethyl-pyrimidine-2,4-diamine]
< 100 | < 100 | < 100 | CNc1nc(Nc2cc3c(c(C4=CCNCCC4)c2F)OCC3)nc(C)c1Cl [Compound 224]
< 100 | < 100 | < 100 | [2H]Cc1nc(Nc2cc3c(c(C4=CCNCCC4)c2F)OCC3)nc(NC([2H])([2H])[2H])c1F [Compound 225]
100 to 500 | 100 to 500 | < 100 | [2H]C([2H])([2H])Nc1nc(Nc2cc3c(c(C4=CCN(C)CCC4)c2F)OCC3)nc(C)c1F [Compound 228]
100 to 500 | 100 to 500 | < 100 | [2H]Cc1nc(Nc2cc3c(c(C4=CCNCCC4)c2)OCC3)nc(NC)c1F [Compound 229]
100 to 500 | 100 to 500 | 100 to 500 | [2H]Cc1nc(Nc2cc3c(c(C4=CCNCCC4)c2)OCC3)nc(NC([2H])([2H])[2H])c1F [Compound 232]
500 to 2000 | 500 to 2000 | 100 to 500 | [2H]Cc1nc(Nc2cc3c(c(C4=CCNCCC4)c2)OCO3)nc(NCC([2H])([2H])[2H])c1F [Compound 233]
< 100 | < 100 | < 100 | [2H]Cc1cc(NC([2H])([2H])[2H])nc(Nc2cc3c(c(C4=CCN(C)CCC4)c2F)OCC3)n1 [Compound 234]
< 100 | < 100 | < 100 | [2H]Cc1nc(Nc2cc3c(c(C4=CCNCCC4)c2F)OCC3)nc(NC)c1F [Compound 235]
100 to 500 | 500 to 2000 | 100 to 500 | [2H]Cc1nc(Nc2cc3c(c(C4=CCNCCC4)c2)OCC3)nc(NCC([2H])([2H])[2H])c1F [Compound 237]
100 to 500 | 100 to 500 | < 100 | CCNc1nc(Nc2cc3c(c(C4=CCNCCC4)c2F)OCC3)nc(C)c1F [Compound 239]
100 to 500 | 500 to 2000 | 100 to 500 | CCNc1nc(Nc2cc3c(c(C4=CCN(C)CCC4)c2F)OCC3)nc(C)c1F [Compound 241]
100 to 500 | 500 to 2000 | 100 to 500 | CNc1nc(Nc2cc3c(c(C4=CCN(C)CCC4)c2F)OCC3)nc(C)c1F [Compound 245]
< 100 | < 100 | < 100 | [2H]C([2H])([2H])CNc1cc(C)nc(Nc2cc3c(c(C4=CCNCCC4)c2)OCO3)n1 [Compound 246]
100 to 500 | 100 to 500 | 100 to 500 | CNc1cc(CC(F)(F)F)nc(Nc2cc3c(c(C4=CCNCCC4)c2)OCC3)c1 [Compound 247]
< 100 | < 100 | < 100 | [2H]Cc1cc(NC([2H])([2H])[2H])nc(Nc2cc3c(c(C4=CCN(C)CCC4)c2)OCCC3)n1 [Compound 251]
< 100 | < 100 | < 100 | [2H]Cc1cc(NC([2H])([2H])[2H])nc(Nc2cc3c(c(C4=CCNCCC4)c2)OCO3)n1 [Compound 252]
< 100 | < 100 | < 100 | [2H]Cc1cc(NC([2H])([2H])[2H])nc(Nc2cc3c(c(C4=CCN(C)CCC4)c2)OCO3)n1 [Compound 254]
